Patent publication US12110289B2, “Heterocyclic compounds, preparation methods and uses thereof” (InventisBio Co., Ltd., priority 2020, dated 2024)
Read-outs that look alike come from different tables or passages of the source.

Experiments:
[1] = test system: Lung cancer cell line NCI-H358 containing KRas G12C mutation; test: Assay for cell proliferation (Cell-titer Glo, 5 days); assay type: cell-based, human; conditions: for IC50: Homo sapiens, NCI-H358, 120 h, read-out: IC50 (nM), Inhibition of NCI-H358 Cell Proliferation
Method in brief: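 NCI-H358 (KRas G12C) cells, 2000 per well, attached overnight at 37 °C, 5% CO2, then treated with compound for 5 days at 0.5% DMSO final. Proliferation measured by CellTiter-Glo luminescence after 10 min at RT.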

NCI-H358 xenograft = test: NSCLC H358 xenograft model, tumor volume; assay type: in vivo, BALB/c nude mice
Experimental: (§1) All the procedures related to animal handling, care and the treatment in this study were performed according to the guidelines approved by the Institutional Animal Care and Use Committee (IACUC) of SIPPER B&K following the guidance of the Association for Assessment and Accreditation of Laboratory Animal Care (AAALAC). At the time of routine monitoring, the animals were checked for any effects of tumor growth on normal behavior such as mobility, food and water consumption (by looking only), body weight gain/loss (body weights were measured twice weekly), eye/hair matting and any other abnormal effect. Death and observed clinical signs were recorded on the basis of the numbers of animals within each subset.
(§2) The NCI-H358, SW837, NCI-H2122 tumor cells were purchased from the American Type Culture Collection (ATCC). Cells were maintained in vitro as monolayer cultured in RPMI-1640 or DMEM medium supplemented with 10% fetal bovine serum, 50 IU/ml penicillin/streptomycin (GIBCO) at 37° C. in an atmosphere of 5% CO2 in air. The tumor cells were routinely sub cultured twice weekly by trypsin-EDTA treatment. The cells growing in an exponential growth phase were harvested and counted for tumor inoculation.
(§3) For tumor bearing models, female 6- to 8-week-old athymic BALB/c nude mice were used for human cancer cell lines. Each mouse was inoculated subcutaneously at the right flank with tumor cells (10×10^6) in 0.1 ml of PBS. The treatments were started when the average tumor size reached approximately 200-250 mm^3. Carboplatin, Cisplatin was injected twice a week by i.p. Vehicles and other test articles were given orally as a suspension by gavage once daily during the study or treatment period.
(§4) Tumor volume was calculated by measuring two perpendicular diameters using the following formula: (L×W 2)/2 in which L and W refer to the length and width tumor diameter, respectively. Results are expressed as mean and standard deviation of the mean.

pooled human hepatocytes = test: Human hepatocyte clearance study; assay type: in vitro ADME; conditions: for Human Hepatocyte Remaining Percentage @ 120 min (%): working cell density 2 × 10^6 viable cells/mL
Experimental: (§5) The in vitro human hepatocyte clearance of compounds described here was studied using pooled human hepatocytes purchased from BioreclamationIVT (Westbury, NY, Cat #X008001, Lot #TQJ). The assay was conducted according to manufacturer's instruction. Briefly, 10 mM stock solutions of test compounds and positive control (Verapamil) were prepared in 100% DMSO. Thawing media (50 mL) used in the study consists of 31 mL Williams E medium (GIBCO Cat #12551-032), 15 mL isotonic percoll (GE Healthcare Cat #17-0891-09), 500 uL 100× GlutaMax (GIBCO Cat #35050), 750 uL HEPES (GIBCO Cat #15630-080), 2.5 mL FBS (Corning Cat #35-076-CVR), 50 uL human insulin (GIBCO Cat #12585-014) and 5 uL dexamethasone (NICPBP). Incubation media is made of Williams E medium supplemented with 1× GlutaMax. Both thawing medium and incubation medium (serum-free) were placed in a 37° C. water bath for at least 15 minutes prior to use. Compound stock solutions were diluted to 100 μM by combining 198 μL of 50% acetonitrile/50% water and 2 μL of 10 mM stock solution. Verapamil was use as positive control in the assay. Vials of cryopreserved hepatocytes were removed from storage and thawed in a 37° C. water bath with gentle shaking. Contents of the vial were poured into the 50 mL thawing medium conical tube. Vials were centrifuged at 100 g for 10 minutes at room temperature. […] […] […] The boiled hepatocytes were used to prepare negative samples. Aliquots of 198 μL hepatocytes were dispensed into each well of a 96-well non-coated plate. The plate was placed in the incubator on an orbital shaker at 500 rpm for approximately 10 minutes. Aliquots of 2 μL of the 100 μM test compound or positive control were added into respective wells of the non-coated 96-well plate to start the reaction. This assay was performed in duplicate. The plate was incubated in the incubator on an orbital shaker at 500 rpm for the designated time points. Twenty-five microliter of contents were transferred and mixed with 6 volumes (150 μL) of cold acetonitrile with IS (200 nM imipramine, 200 nM labetalol and 200 nM diclofenac) to terminate the reaction at time points of 0, 15, 30, 60, 90 and 120 minutes. Samples were centrifuged at 3,220 g for 25 minutes and aliquots of 150 μL of the supernatants were used for LC-MS/MS analysis. For data analysis, all calculations were carried out using Microsoft Excel. Peak areas were determined from extracted ion chromatograms. The in vitro half-life (t1/2) of parent compound was determined by regression analysis of the percent parent disappearance vs. time curve. […] Scaling factors for in vivo intrinsic clearance prediction using human hepatocytes are listed as: liver weight (g liver/kg body weight): 25.7; hepatocyte concentration (10^6 cells/g liver): 99; scaling factor: 2544.3.

[2] = Human hepatocyte clearance study; assay type: in vitro ADME; conditions: human, pooled cryopreserved human hepatocytes (suspension), working cell density 2 × 10^6 viable cells/mL; for hepatocyte CLint at 1 µM: read-out: Human In vitro Clint (μl/min/10^6 cells); for half-life at 1 µM: read-out: Human In vitro T1/2; for CLint scaled at 1 µM: read-out: Human Scale-up Clint
Experimental: as §5

SW837 xenograft = test: Colorectal adenocarcinoma SW837 xenograft model, tumor volume; assay type: in vivo, BALB/c nude mice
Experimental: as §1, §2, §3, §4

[3] = Rat PK study, single i.g. dose; assay type: in vivo; conditions: female, SD, plasma, PO, 10 mg/kg
Experimental: The pharmacokinetic (PK) profile of compounds following single i.g in SD rat obtained from […] Laboratory Animal Co., LTD of Shanghai was determined. Three female rats of weight around 220 g were used. Compounds were prepared at 1 mg/ml with the formulation of 10% DMSO+10% solutol HS15+80% (10% HPβCD in water). Blood samples (0.2 mL) were collected at 0 h (pre-dose) and 0.25, 0.5, 1, 2, 4, 8, 24 h time points after administration of compounds at the dose of 10 mg/kg. The collected blood samples were centrifuged without delay and the plasma was separated and transferred into tubes before storage at -70° C. prior to analysis. Aliquots of the plasma unknowns, blank and calibration standards were placed in 1.5 mL tubes and mixed with acetonitrile/methanol (1/1, v/v) containing IS. After vortexing for 5 min, each sample was centrifuged at 14000 rpm at 4° C. for 10 min. The supernatant were injected into the LC-MS/MS system. […] Eluates were analyzed using an API4000 Q-Trap mass spectrometer with a TurboIonSpray interface. Chromatographic separation was done with a mobile phase composed of water with 0.1% formic acid (solution A) and acetonitrile with 0.1% formic acid (solution B). The mobile phase was delivered at a flow rate of 0.6 mL/min, using a stepwise gradient elution program. To improve the sensitivity of the test compound screening, a MRM method in positive electrospray ionization mode was employed. Mass spectrometry data was acquired and analyzed using AB Sciex Analyst version 1.6.2 software. The pharmacokinetic parameters were derived using standard noncompartmental methods with Phoenix WinNonLin Professional Version 8.1.

IC50 ([1]; NCI-H358, 5 days, Cell-titer Glo) | Compound | reduction of tumor volume, combined treatment vs either agent alone (NCI-H358 xenograft; Compound 145 at 5 mg/kg combined with carboplatin at 30 mg/kg, FIG. 4) | Human Hepatocyte Remaining Percentage @ 120 min (%) (pooled human hepatocytes) | hepatocyte CLint at 1 µM [2] | half-life at 1 µM [2] | CLint scaled at 1 µM [2] | potency in inhibiting KRAS G12C compared with corresponding isopropyl analogs [1] | IC50 [1] | fold more potent: 2-amino-6-fluoro-phenyl compound vs. corresponding 2-fluoro-phenyl compound at R8 ([1]; NCI-H358 IC50 comparison) | reducing tumor volume compared with AMG510 (SW837 xenograft; 60 mg/kg oral once daily vs AMG510 at 60 mg/kg, FIG. 1) | reduction of tumor volume, combined treatment vs either agent alone (SW837 xenograft; Compound 44 at 30 mg/kg combined with trametinib at 1 mg/kg, FIG. 6) | reducing tumor volume compared with AMG510 (NCI-H358 xenograft; 30 mg/kg oral once daily vs AMG510 at 30 mg/kg, FIG. 2) | human hepatocyte clearance profile compared to control compounds (pooled human hepatocytes) | AUC(0-t) ([3]; read-out: Rat PO (10 mpk) AUC last) | Cmax ([3]; read-out: Rat PO (10 mpk) Cmax) | bioavailability ([3]; read-out: Rat PO (10 mpk) F %)
1.4 nM | C=CC(=O)N1C[C@H](C)N(c2nc(=O)n(-c3c(F)cc4c(ncn4C)c3C(C)C)c3nc(-c4c(N)cccc4F)c(F)cc23)C[C@H]1C (atropisomer, axis not shown) [Compound 145] | much better reduction of tumor volume | 82.9% | 1 µL/min/1e6 cells | 11.5 h | 2.6 mL/min/kg |  |  |  |  |  |  |  |  |  | 
 | C=CC(=O)N1C[C@H](C)N(c2nc(=O)n(-c3c(C4CC4)ncnc3C3CC3)c3nc(-c4c(N)cccc4F)c(F)cc23)C[C@H]1C [Compound 44] |  | 61.7% | 4 µL/min/1e6 cells | 2.87 h | 10.2 mL/min/kg | better potency | 2.1 nM | about 19 × | more effective than AMG510 | much better reduction of tumor volume | more effective than AMG510 | better human hepatocyte clearance profile | 4.3 µM·h | 1380 nM | 71%
